Among the data in US20250313548A1 (Actio Biosciences, Inc., priority 2023, published 2025) are IC50 values, retold here.

SMILES strings stand for the structures.

The target of the assay is human, KCNT1 (Homo sapiens (Human), UniProt Q5JUK3). The assay is described as follows: FLIPR Tl/K Flux Assay. The note with it: HEK293 cells stably expressing human KCNT1; Tl+ flux stimulated with EC80 of agonist Loxapine. The class given is cell-based. Put shortly: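 HEK293 cells stably expressing human KCNT1 were loaded with FLIPR potassium dye in HEPES/HBSS pH 7.4 with 5 mM probenecid, 1 h at 25 °C, then given test compound for 30 min at 25 °C. Tl+ flux was triggered with chloride-free buffer containing Tl+ and EC80 loxapine and read 160 s. IC50 came from Hill fits of % inhibition.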
Chain of human, KCNT1 (Q5JUK3 whole entry): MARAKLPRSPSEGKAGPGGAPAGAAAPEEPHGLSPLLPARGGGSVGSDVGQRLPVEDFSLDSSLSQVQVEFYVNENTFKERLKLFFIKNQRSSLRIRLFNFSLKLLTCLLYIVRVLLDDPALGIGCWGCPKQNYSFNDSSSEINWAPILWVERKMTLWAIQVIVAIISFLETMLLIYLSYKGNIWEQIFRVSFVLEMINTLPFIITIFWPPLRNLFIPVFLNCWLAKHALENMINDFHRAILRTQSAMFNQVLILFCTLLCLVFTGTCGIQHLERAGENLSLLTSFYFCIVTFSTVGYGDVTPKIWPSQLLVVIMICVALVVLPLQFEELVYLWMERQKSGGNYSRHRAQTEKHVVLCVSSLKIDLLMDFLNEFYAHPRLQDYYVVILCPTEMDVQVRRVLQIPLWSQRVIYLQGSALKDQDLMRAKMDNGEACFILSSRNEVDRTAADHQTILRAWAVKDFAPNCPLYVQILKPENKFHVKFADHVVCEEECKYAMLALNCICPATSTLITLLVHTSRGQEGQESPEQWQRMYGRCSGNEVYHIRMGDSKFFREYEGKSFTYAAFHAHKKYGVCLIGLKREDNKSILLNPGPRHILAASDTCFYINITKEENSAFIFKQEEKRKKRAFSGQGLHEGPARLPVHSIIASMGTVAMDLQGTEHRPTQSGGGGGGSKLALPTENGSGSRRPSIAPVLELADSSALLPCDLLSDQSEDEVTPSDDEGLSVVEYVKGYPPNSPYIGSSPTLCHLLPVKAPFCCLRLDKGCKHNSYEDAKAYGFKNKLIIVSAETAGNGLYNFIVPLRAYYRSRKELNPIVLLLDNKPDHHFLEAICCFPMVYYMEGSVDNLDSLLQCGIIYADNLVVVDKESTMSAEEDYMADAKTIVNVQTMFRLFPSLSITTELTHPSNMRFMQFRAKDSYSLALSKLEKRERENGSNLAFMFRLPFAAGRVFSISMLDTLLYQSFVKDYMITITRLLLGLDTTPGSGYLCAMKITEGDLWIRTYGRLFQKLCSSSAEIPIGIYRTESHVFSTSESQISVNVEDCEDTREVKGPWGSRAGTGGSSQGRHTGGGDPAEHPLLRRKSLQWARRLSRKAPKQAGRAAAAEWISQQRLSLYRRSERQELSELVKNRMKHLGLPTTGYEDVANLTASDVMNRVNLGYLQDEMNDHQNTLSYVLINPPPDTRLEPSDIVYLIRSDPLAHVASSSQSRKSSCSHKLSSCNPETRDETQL
`N#Cc1cccc(C(=O)N[C@H]2CCCn3nc(-c4ccnc(C5CC5)c4)cc32)c1` [Compound I-449a] yielded an IC50 of less than 250 nM. Take `O=C(N[C@H]1CCn2nc(-c3ccnc(C(F)(F)F)c3)cc21)c1cc(Cl)cc(C(F)(F)F)c1` [Compound I-451a]: the IC50 was less than 250 nM. Next, `Cn1nc(C(F)(F)F)cc1C(=O)N[C@H]1CCCc2cnc(-c3ccnc(C(F)(F)F)c3)nc21` [Compound I-452a]: 250 to 500 nM. Compound `Cn1nc(C(F)(F)F)cc1C(=O)N[C@@H]1CCCc2cnc(-c3ccnc(C(F)(F)F)c3)nc21` [Compound I-452b] had a 50% inhibitory concentration (IC50) greater than 1000 nM. `O=C(N[C@H]1CCCc2nnc(-c3ccnc(C(F)(F)F)c3)cc21)c1cc(F)cc(F)c1` [Compound I-453a] came in with a half-inhibitory concentration (IC50) greater than 1000 nM. Turning to `O=C(N[C@@H]1CCCc2nnc(-c3ccnc(C(F)(F)F)c3)cc21)c1cc(F)cc(F)c1` [Compound I-453b], the half-maximal inhibitory concentration (IC50) is greater than 1000 nM.

In turn, `N#Cc1cccc(C(=O)N[C@H]2CCc3nn(-c4ccnc(C(F)(F)F)c4)cc32)c1` [Compound I-454a] came in with a concentration for half-maximal inhibition (IC50) of less than 250 nM. `N#Cc1cc(F)cc(C(=O)N[C@H]2CCc3nn(-c4ccnc(C(F)(F)F)c4)cc32)c1` [Compound I-455a] showed a half-maximal inhibitory concentration (IC50) of less than 250 nM. `COc1cc(-c2cc3n(n2)CCCC[C@@H]3NC(=O)c2cccc(C#N)c2)ccn1` [Compound I-456a] showed an IC50 of less than 250 nM.

`N#Cc1cccc(C(=O)N[C@H]2CCCCn3nc(-c4ccnc(C5CC5)c4)cc32)c1` [Compound I-457a] gave an IC50 of less than 250 nM. In the case of `N#Cc1cc(Cl)cc(C(=O)N[C@H]2CCCn3nc(-c4ccnc(C(F)(F)F)c4)cc32)c1` [Compound I-458a], the IC50 was less than 250 nM. As to `Cn1nc(C(F)(F)F)cc1C(=O)N[C@H]1CCCn2nc(-c3ccnc(C4(C)CC4)c3)cc21` [Compound I-459a], the 50% inhibitory concentration (IC50) is less than 250 nM. Turning to `Cn1nc(C(F)(F)F)cc1C(=O)N[C@H]1CCc2ncc(-c3ccnc(C(F)(F)F)c3)cc21` [Compound I-460a], the IC50 was greater than 1000 nM. `O=C(N[C@H]1CCCc2cnc(-c3ccnc(C(F)(F)F)c3)cc21)c1cc(F)cc(F)c1` [Compound I-461a] returned an IC50 of less than 250 nM.

The compound `O=C(N[C@H]1CCc2nn(-c3ccnc(C4CC4)c3)cc21)c1cc(F)cc(F)c1` [Compound I-462a] displayed a half-maximal inhibitory concentration (IC50) of less than 250 nM. The compound `N#Cc1cccc(C(=O)NC2CCCCC3NC(c4ccnc(C(F)(F)F)c4)=NC23)c1` (stereo not shown) [Compound I-463] registered an IC50 greater than 1000 nM. Next, `COc1cc(C2=NC3C(NC(=O)c4cccc(C#N)c4)CCCCC3N2)ccn1` (stereo not shown) [Compound I-464]: greater than 1000 nM; `Cn1nc(C(F)(F)F)cc1C(=O)NC1CCCn2nc(-c3ccnc(C(F)(F)F)c3)cc2C1` (stereo not shown) [Compound I-465]: less than 250 nM; `Cn1nc(C(F)(F)F)cc1C(=O)NC1CCn2nc(-c3ccnc(C(F)(F)F)c3)cc2C1` (stereo not shown) [Compound I-468]: less than 250 nM. `Cn1nc(C(F)(F)F)cc1C(=O)NC1Cc2cc(-c3ccnc(C(F)(F)F)c3)nn2C1` (stereo not shown) [Compound I-469] returned a 50% inhibitory concentration (IC50) of less than 250 nM. Compound `N#Cc1cc(F)cc(C(=O)N[C@@H]2CCCCn3nc(-c4ccnc(C5CC5)c4)cc32)c1` [Compound I-470b] gave an IC50 of less than 250 nM.

`COc1cc(-c2nc3c(o2)CCC[C@H]3NC(=O)c2cncc(C(F)(F)F)n2)ccn1` [Compound I-471b] had a half-maximal inhibitory concentration (IC50) of 500 to 1000 nM. In the case of `Cc1cnc(C(F)(F)F)cc1-c1cc2n(n1)CC[C@H]2NC(=O)c1cc(C(F)(F)F)nn1C` [Compound I-472b], the IC50 is greater than 1000 nM. Next, `COc1cc(-c2nc3n(n2)CCC[C@H]3NC(=O)c2cc(C(F)(F)F)nn2C)ccn1` [Compound I-474b]: greater than 1000 nM. On to `Cn1nc(C(F)(F)F)cc1C(=O)N[C@@H]1CCCc2cc(-c3ccnc(C(F)(F)F)c3)[nH]c21` [Compound I-475b], for which the IC50 is greater than 1000 nM. The compound `Cn1nc(C(F)(F)F)cc1C(=O)N[C@@H]1CCCCn2nc(-c3cc(C(F)(F)F)ncc3F)cc21` [Compound I-476b] returned a 50% inhibitory concentration (IC50) of 250 to 500 nM. As for `N#Cc1cccc(C(=O)NC2CCCCC3OC(c4ccnc(C(F)(F)F)c4)=NC23)c1` (stereo not shown) [Compound I-477], the IC50 was less than 250 nM.

For `O=C(NC1CCc2cnc(-c3ccnc(C(F)(F)F)c3)cc21)c1cc(F)cc(F)c1` (stereo not shown) [Compound I-478], the IC50 was less than 250 nM. In turn, `Cn1nc(C(F)(F)F)nc1C(=O)N[C@@H]1CCn2nc(-c3ccnc(C(C)(F)F)c3)cc21` [Compound I-480b] registered a concentration for half-maximal inhibition (IC50) of 500 to 1000 nM.

With `Cn1nc(C(F)(F)F)nc1C(=O)N[C@@H]1CCn2nc(-c3cc(C(F)(F)F)ncc3Cl)cc21` [Compound I-481b], the IC50 was in the range of 250 to 500 nM.

For `Cc1cnc(C(F)(F)F)cc1-c1cc2n(n1)CC[C@H]2NC(=O)c1nc(C(F)(F)F)nn1C` [Compound I-482b], the half-inhibitory concentration (IC50) is 500 to 1000 nM. Next, `Cn1nc(C(F)(F)F)nc1C(=O)N[C@H]1CCn2nc(-c3cc(C4CC4)ncc3F)cc21` [Compound I-483a, (S)—N-(2-(2-Cyclopropyl-5-fluoropyridin-4-yl)-5,6-dihydro-4H-pyrrolo[1,2-b]pyrazol-4-yl)-1-methyl-3-(trifluoromethyl)-1H-1,2,4-triazole-5-carboxamide]: less than 250 nM. In the case of `O=C(N[C@H]1CCn2nc(-c3ccnc(C(F)(F)F)c3)cc21)c1cn(C(F)(F)F)nc1C(F)F` [Compound I-484a, (S)-3-(Difluoromethyl)-1-(trifluoromethyl)-N-(2-(2-(trifluoromethyl)pyridin-4-yl)-5,6-dihydro-4H-pyrrolo[1,2-b]pyrazol-4-yl)-1H-pyrazole-4-carboxamide], the IC50 was less than 250 nM. With `COc1cc(C(=O)N[C@@H]2CCn3nc(-c4cc(C(F)(F)F)ncc4F)cc32)ccn1` [Compound I-485b], the IC50 was less than 250 nM. In turn, `Cc1cc(C#N)cc(C(=O)N[C@@H]2CCn3nc(-c4cc(C(F)(F)F)ncc4F)cc32)c1` [Compound I-486b] yielded an IC50 of 250 to 500 nM. Under `O=C(N[C@H]1CCn2nc(-c3ccnc(C(F)(F)F)c3)cc21)C12CC(F)(C1)C2` [Compound I-489a, (S)-3-Fluoro-N-(2-(2-(trifluoromethyl)pyridin-4-yl)-5,6-dihydro-4H-pyrrolo[1,2-b]pyrazol-4-yl)bicyclo[1.1.1]pentane-1-carboxamide] stands less than 250 nM; under `O=C(N[C@H]1CCn2nc(-c3ccnc(C(F)(F)F)c3)cc21)C12CC(Cl)(C1)C2` [Compound I-490a, (S)-3-Chloro-N-(2-(2-(trifluoromethyl)pyridin-4-yl)-5,6-dihydro-4H-pyrrolo[1,2-b]pyrazol-4-yl)bicyclo[1.1.1]pentane-1-carboxamide], less than 250 nM; under `N#CC12CC(C(=O)N[C@H]3CCn4nc(-c5ccnc(C(F)(F)F)c5)cc43)(C1)C2` [Compound I-491a, (S)-3-Cyano-N-(2-(2-(trifluoromethyl)pyridin-4-yl)-5,6-dihydro-4H-pyrrolo[1,2-b]pyrazol-4-yl)bicyclo[1.1.1]pentane-1-carboxamide], 500 to 1000 nM. Next, `Cc1cnc(C2CC2)cc1-c1cc2n(n1)CC[C@@H]2NC(=O)c1nc(C(F)(F)F)nn1C` [Compound I-492a, (S)-N-(2-(2-Cyclopropyl-5-methylpyridin-4-yl)-5,6-dihydro-4H-pyrrolo[1,2-b]pyrazol-4-yl)-1-methyl-3-(trifluoromethyl)-1H-1,2,4-triazole-5-carboxamide]: less than 250 nM.

In the case of `O=C(N[C@H]1CCn2nc(-c3cc(C(F)(F)F)ncc3F)cc21)C12CC(C(F)(F)F)(C1)C2` [Compound I-493a, (S)-N-(2-(5-Fluoro-2-(trifluoromethyl)pyridin-4-yl)-5,6-dihydro-4H-pyrrolo[1,2-b]pyrazol-4-yl)-3-(trifluoromethyl)bicyclo[1.1.1]pentane-1-carboxamide], the 50% inhibitory concentration (IC50) was less than 250 nM. As for `O=C(N[C@H]1CCn2nc(-c3ccnc(C4CC4)c3)cc21)C12CC(C(F)(F)F)(C1)C2` [Compound I-494a, (S)-N-(2-(2-Cyclopropylpyridin-4-yl)-5,6-dihydro-4H-pyrrolo[1,2-b]pyrazol-4-yl)-3-(trifluoromethyl)bicyclo[1.1.1]pentane-1-carboxamide], the IC50 is less than 250 nM.

With `Cn1nc(C(F)(F)F)nc1C(=O)N[C@H]1CCCn2nc(-c3cc(C4CC4)ncc3F)cc21` [Compound I-495a, (S)-N-(2-(2-Cyclopropyl-5-fluoropyridin-4-yl)-4,5,6,7-tetrahydropyrazolo[1,5-a]pyridin-4-yl)-1-methyl-3-(trifluoromethyl)-1H-1,2,4-triazole-5-carboxamide], the IC50 is less than 250 nM. `O=C(N[C@H]1CCCn2nc(-c3ccnc(C4CC4)c3)cc21)c1ccnc(C(F)(F)F)c1` [Compound I-496a, (S)-N-(2-(2-Cyclopropylpyridin-4-yl)-4,5,6,7-tetrahydropyrazolo[1,5-a]pyridin-4-yl)-2-(trifluoromethyl)isonicotinamide] gave a half-maximal inhibitory concentration (IC50) of less than 250 nM.

`O=C(N[C@H]1CCCn2nc(-c3ccnc(C(F)(F)F)c3)cc21)c1cn(C(F)(F)F)nc1C(F)F` [Compound I-497a, (S)-3-(Difluoromethyl)-1-(trifluoromethyl)-N-(2-(2-(trifluoromethyl)pyridin-4-yl)-4,5,6,7-tetrahydropyrazolo[1,5-a]pyridin-4-yl)-1H-pyrazole-4-carboxamide] yielded an IC50 of less than 250 nM.

The compound `O=C(N[C@H]1CCCn2nc(-c3cc(C4CC4)ncc3F)cc21)c1ccnc(OC(F)(F)F)c1` [Compound I-498a, (S)-N-(2-(2-Cyclopropyl-5-fluoropyridin-4-yl)-4,5,6,7-tetrahydropyrazolo[1,5-a]pyridin-4-yl)-2-(trifluoromethoxy)isonicotinamide] showed an IC50 of less than 250 nM. Next, `Cn1nc(C(F)(F)F)nc1C(=O)N[C@H]1CCCn2nc(-c3ccnc(C4CC4)c3)cc21` [Compound I-499a, (S)-N-(2-(2-Cyclopropylpyridin-4-yl)-4,5,6,7-tetrahydropyrazolo[1,5-a]pyridin-4-yl)-1-methyl-3-(trifluoromethyl)-1H-1,2,4-triazole-5-carboxamide]: less than 250 nM.
